The values below come from patent US8901138B2, “Sulfoximine substituted quinazolines for pharmaceutical compositions” (Boehringer Ingelheim International GmbH, priority 2012, dated 2014).

pIC50: −log10 of the molar value.

Sequence of MNK1a (Q9BUB5 1-424 isoform Q9BUB5-2): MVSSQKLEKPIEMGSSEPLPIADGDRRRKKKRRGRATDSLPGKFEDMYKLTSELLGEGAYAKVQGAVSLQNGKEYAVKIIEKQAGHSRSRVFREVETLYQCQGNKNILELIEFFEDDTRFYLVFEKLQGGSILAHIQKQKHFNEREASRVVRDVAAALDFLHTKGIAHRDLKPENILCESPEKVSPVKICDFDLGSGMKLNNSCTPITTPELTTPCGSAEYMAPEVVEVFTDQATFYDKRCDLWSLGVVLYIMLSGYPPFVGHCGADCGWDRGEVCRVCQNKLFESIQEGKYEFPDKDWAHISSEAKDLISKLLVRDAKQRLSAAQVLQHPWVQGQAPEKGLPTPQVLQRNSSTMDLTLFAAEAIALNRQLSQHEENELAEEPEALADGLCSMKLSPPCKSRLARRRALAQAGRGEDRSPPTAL
T1 sequence (Q9HBH9 whole entry): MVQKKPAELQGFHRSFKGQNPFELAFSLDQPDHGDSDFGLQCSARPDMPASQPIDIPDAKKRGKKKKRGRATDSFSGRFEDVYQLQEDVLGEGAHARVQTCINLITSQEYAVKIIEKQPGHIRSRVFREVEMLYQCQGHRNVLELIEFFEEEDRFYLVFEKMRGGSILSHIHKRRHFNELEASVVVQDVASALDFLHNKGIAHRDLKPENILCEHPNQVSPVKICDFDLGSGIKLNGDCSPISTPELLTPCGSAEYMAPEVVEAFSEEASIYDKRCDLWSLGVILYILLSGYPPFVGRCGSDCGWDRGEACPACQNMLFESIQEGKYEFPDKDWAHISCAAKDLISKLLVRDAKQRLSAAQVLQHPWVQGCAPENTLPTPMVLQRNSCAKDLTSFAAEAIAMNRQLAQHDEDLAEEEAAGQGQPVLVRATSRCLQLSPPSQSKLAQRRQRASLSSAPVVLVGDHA

One test has as its target T1, MNK2a (Homo sapiens, UniProt Q9HBH9).
T1 construct: made in house
The test is described as follows: MNK2a in vitro kinase assay (assay 1), ADP-Glo. The test is classed as biochemical. Particulars: preactivated GST-MNK2a, 20 μM ATP, read-out: MNK2 IC50. The gist of the method: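 Preactivated GST-MNK2a (10 nM) with eIF4E peptide (25 μM) and ATP (20 μM) in HEPES/DTT/MgCl2 buffer, 90 min at room temperature, final DMSO <3%. ADP formed read by ADP-Glo luminescence and normalised to vehicle and 20 μM reference-inhibitor controls; IC50 from dose-response curves.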
As for `Cc1cc(N=S2(=O)CCCC2)cc2ncnc(Nc3ccc(F)cc3O[C@@H]3CO[C@@H]4CCC[C@@H]43)c12` [Example 2.123], the pIC50 is 9.00.
Still for that read-out and setting: under `Cc1cc(N=S(C)(C)=O)cc2ncnc(Nc3ccc(F)cc3OC3(C)CC3C)c12` (stereo not drawn) [Example 1.33] stands 8.70.
The same measure, in the same setting: under `CO[C@@H]1CCCC[C@H]1Oc1cc(F)ccc1Nc1ncnc2cc(N=S(C)(C)=O)cc(C)c12` [Example 2.67] stands 8.52.
The same measure, in the same setting: under `Cc1cc(N=S(C)(C)=O)cc2ncnc(Nc3ccc(C(N)=O)cc3OC3CCCC3)c12` [Example 2.24] stands 8.40; under `Cc1cc(N=S(C)(C)=O)cc2ncnc(Nc3ccc(F)cc3OC3COCOC3)c12` [Example 2.120], 8.70; under `Cc1cc(N=[S@](C)(=O)c2ccccc2)cc2ncnc(Nc3ccc(F)cc3O[C@H]3CCOC3)c12` [Example 2.72], 7.52.
In the case of `Cc1cc(N=S(C)(C)=O)cc2ncnc(Nc3ccc(F)cc3OC3(C)CCOC3)c12` (stereo not drawn) [Example 1.32], the pIC50 was 8.15.
For `CO[C@@H]1CO[C@H]2[C@@H]1OC[C@H]2Oc1cc(F)ccc1Nc1ncnc2cc(N=S(C)(C)=O)cc(Cl)c12` [Example 1.2], the negative-log IC50 (pIC50) was 9.00.
The same measure, in the same setting: under `Cc1cc(N=S2(=O)CCCC2)cc2ncnc(Nc3cccnc3O[C@@H]3CO[C@H]4[C@@H]3OC[C@H]4O)c12` [Example 2.4] stands 8.40; under `Cc1cc(N=S(C)(C)=O)cc2ncnc(Nc3cccnc3O[C@H]3CC[C@H](N)CC3)c12` [Example 3.2], 8.40.
Still for that read-out and setting: under `Cc1cc(N=S(C)(=O)C(C)(C)C)cc2ncnc(Nc3ccc(F)cc3O[C@H]3CCOC3)c12` (stereo partly drawn) [Example 2.112] stands 8.22; under `Cc1cc(N=S2(=O)CCCC2)cc2ncnc(Nc3ccc(F)cc3O[C@@H]3CCCN(CCO)C3)c12` [Example 6.7], 8.70.
Same read-out and setting: under `CO[C@H]1CC[C@H](Oc2cc(F)ccc2Nc2ncnc3cc(N=S4(=O)CCNCC4)cc(C)c23)CC1` [Example 3.10] stands 8.10; under `Cc1cc(N=S(C)(=O)CCN2CCCC2)cc2ncnc(Nc3ccc(F)cc3O[C@H]3CC[C@H](O)CC3)c12` (stereo partly drawn) [Example 2.107], 8.00.
Take `CCO[C@@H]1CO[C@H]2[C@@H]1OC[C@H]2Oc1cc(F)ccc1Nc1ncnc2cc(N=S3(=O)CCCC3)cc(C)c12` [Example 2.37]: the pIC50 was 9.00.
For the compound `CS(C)(=O)=Nc1cc(SCF)c2c(Nc3ccc(F)cc3O[C@H]3CCOC3)ncnc2c1` [Example 7.11], the pIC50 is 8.30.
On the same count and under the same terms, the value for `Cc1cc(N=S(C)(C)=O)cc2ncnc(Nc3ccc(F)cc3O[C@@H]3CC[C@@H]4OCC[C@@H]43)c12` [Example 2.124] was 8.40.
On the same count and under the same terms, under `CO[C@@H]1CCC[C@H]1Oc1cc(F)ccc1Nc1ncnc2cc(N=S(C)(C)=O)cc(C)c12` [Example 1.36] stands 8.70; under `Cc1cc(N=S(C)(=O)C(C)(C)C#N)cc2ncnc(Nc3ccc(F)cc3O[C@H]3CCOC3)c12` (stereo partly drawn) [Example 2.111], 8.30; under `Cc1cc(N=S(C)(C)=O)cc2ncnc(Nc3cccnc3OC3CCOCC3)c12` [Example 2.6], 8.40.
On the same count and under the same terms, under `CS(C)(=O)=Nc1cc(F)c2c(Nc3ccc(F)cc3O[C@@H]3CCN(CC(F)F)C3)ncnc2c1` [Example 6.16] stands 8.15; under `CCS(C)(=O)=Nc1cc(C)c2c(Nc3ccc(F)cc3OC3CCOC3)ncnc2c1` (single isomer, unassigned) [Example 7.13], 8.70; under `Cc1cc(N=S(C)(C)=O)cc2ncnc(Nc3ccc(F)cc3O[C@@H]3CCCN(CC(F)(F)F)C3)c12` [Example 6.6], 8.70.
As to `CCS(C)(=O)=Nc1cc(C)c2c(Nc3ccc(F)cc3O[C@@H]3CO[C@H]4[C@@H]3OC[C@H]4O)ncnc2c1` (stereo partly drawn) [Example 2.33], the negative logarithm of the IC50 (pIC50) was 8.52.

For the next test, the target named is MNK1a (Homo sapiens, UniProt Q9BUB5). The experiment in a line: MNK1 in vitro kinase assay (assay 2), Z'-LYTE. It is filed as biochemical. Particulars: compound concentration of 1 μM. The gist of the method:
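Pre-activated GST-MNK1a (13.5-54 ng) with 2 μM Ser/Thr 07 FRET peptide in 50 mM HEPES pH 7.5, 10 mM MgCl2, 2 mM MnCl2, 1 mM EGTA, 1 mM DTT, 1% DMSO; 1 h kinase then 1 h development at room temperature. Coumarin/fluorescein emission ratio gives % phosphorylation; sigmoidal dose-response fit.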
On to `Cc1cc(N=S2(=O)CCCC2)cc2ncnc(Nc3ccc(F)cc3O[C@@H]3CO[C@@H]4CCC[C@@H]43)c12` [Example 2.123], for which the inhibition at 1 µM was 100%.
The same measure, in the same setting: under `CO[C@@H]1CCCC[C@H]1Oc1cc(F)ccc1Nc1ncnc2cc(N=S(C)(C)=O)cc(C)c12` [Example 2.67] stands 85%; under `Cc1cc(N=S(C)(C)=O)cc2ncnc(Nc3ccc(C(N)=O)cc3OC3CCCC3)c12` [Example 2.24], 93%; under `Cc1cc(N=S(C)(C)=O)cc2ncnc(Nc3ccc(F)cc3OC3COCOC3)c12` [Example 2.120], 103%.
On the same count and under the same terms, under `Cc1cc(N=[S@](C)(=O)c2ccccc2)cc2ncnc(Nc3ccc(F)cc3O[C@H]3CCOC3)c12` [Example 2.72] stands 71%; under `Cc1cc(N=S2(=O)CCCC2)cc2ncnc(Nc3cccnc3O[C@@H]3CO[C@H]4[C@@H]3OC[C@H]4O)c12` [Example 2.4], 97%.
Still for that read-out and setting: the value for `Cc1cc(N=S(C)(C)=O)cc2ncnc(Nc3cccnc3O[C@H]3CC[C@H](N)CC3)c12` [Example 3.2] was 101%.
Consider `Cc1cc(N=S(C)(=O)C(C)(C)C)cc2ncnc(Nc3ccc(F)cc3O[C@H]3CCOC3)c12` (stereo partly drawn) [Example 2.112], for which the inhibition at 1 µM was determined as 89%.
For `Cc1cc(N=S2(=O)CCCC2)cc2ncnc(Nc3ccc(F)cc3O[C@@H]3CCCN(CCO)C3)c12` [Example 6.7], the inhibition at 1 µM came out at 100%.
On the same count and under the same terms, the value for `CO[C@H]1CC[C@H](Oc2cc(F)ccc2Nc2ncnc3cc(N=S4(=O)CCNCC4)cc(C)c23)CC1` [Example 3.10] was 88%; that for `CCO[C@@H]1CO[C@H]2[C@@H]1OC[C@H]2Oc1cc(F)ccc1Nc1ncnc2cc(N=S3(=O)CCCC3)cc(C)c12` [Example 2.37] was 95%; that for `CS(C)(=O)=Nc1cc(SCF)c2c(Nc3ccc(F)cc3O[C@H]3CCOC3)ncnc2c1` [Example 7.11] was 98%.
On the same count and under the same terms, the value for `Cc1cc(N=S(C)(C)=O)cc2ncnc(Nc3ccc(F)cc3O[C@@H]3CC[C@@H]4OCC[C@@H]43)c12` [Example 2.124] was 83%; that for `CO[C@@H]1CCC[C@H]1Oc1cc(F)ccc1Nc1ncnc2cc(N=S(C)(C)=O)cc(C)c12` [Example 1.36] was 84%.
The same measure, in the same setting: under `Cc1cc(N=S(C)(=O)C(C)(C)C#N)cc2ncnc(Nc3ccc(F)cc3O[C@H]3CCOC3)c12` (stereo partly drawn) [Example 2.111] stands 89%.
Consider `Cc1cc(N=S(C)(C)=O)cc2ncnc(Nc3cccnc3OC3CCOCC3)c12` [Example 2.6], for which the inhibition at 1 µM was 92%.
Take `CS(C)(=O)=Nc1cc(F)c2c(Nc3ccc(F)cc3O[C@@H]3CCN(CC(F)F)C3)ncnc2c1` [Example 6.16]: the inhibition at 1 µM stood at 90%.
Regarding `CCS(C)(=O)=Nc1cc(C)c2c(Nc3ccc(F)cc3OC3CCOC3)ncnc2c1` (single isomer, unassigned) [Example 7.13], the inhibition at 1 µM worked out at 98%.
Still for that read-out and setting: the value for `Cc1cc(N=S(C)(C)=O)cc2ncnc(Nc3ccc(F)cc3O[C@@H]3CCCN(CC(F)(F)F)C3)c12` [Example 6.6] was 92%.
For the compound `CCS(C)(=O)=Nc1cc(C)c2c(Nc3ccc(F)cc3O[C@@H]3CO[C@H]4[C@@H]3OC[C@H]4O)ncnc2c1` (stereo partly drawn) [Example 2.33], the inhibition at 1 µM was determined as 100%.

The same test, now with this note: pre-activated GST-MNK1a.
For `Cc1cc(N=S(C)(C)=O)cc2ncnc(Nc3ccc(F)cc3OC3(C)CC3C)c12` (stereo not drawn) [Example 1.33], the negative logarithm of the IC50 (pIC50) was 6.96.
The same measure, in the same setting: under `Cc1cc(N=S(C)(C)=O)cc2ncnc(Nc3ccc(F)cc3OC3(C)CCOC3)c12` (stereo not drawn) [Example 1.32] stands 6.83; under `CO[C@@H]1CO[C@H]2[C@@H]1OC[C@H]2Oc1cc(F)ccc1Nc1ncnc2cc(N=S(C)(C)=O)cc(Cl)c12` [Example 1.2], 7.89; under `Cc1cc(N=S(C)(=O)CCN2CCCC2)cc2ncnc(Nc3ccc(F)cc3O[C@H]3CC[C@H](O)CC3)c12` (stereo partly drawn) [Example 2.107], 6.99.
